# According to paper PMC2821678 (Chemico-biological interactions, 2009):
# pIC50: −log10 of the molar value. Read-outs that look alike come from different tables or passages of the source.
# What was measured:
# SK-MEL-28 melanoma cells = experiment: MTT cell viability, SK-MEL-28; type: cell-based, human; conditions: read-out: IC50 (48 h) SK-MEL-28
# B16-F0 melanoma cells = experiment: MTT cell viability, B16-F0; type: cell-based, murine; conditions: read-out: IC50 (48 h) B16-F0
# Mushroom tyrosinase = experiment: Tyrosinase mediated GSH depletion assay; type: biochemical; conditions: 2 h incubation
Molecule,"pIC50 (SK-MEL-28 melanoma cells; Homo sapiens, SK-MEL-28, 48 h)","pIC50 (B16-F0 melanoma cells; Mus musculus, B16F0, 48 h)",% GSH depletion (2 h) Tyrosinase/O2 (Mushroom tyrosinase),"pIC50 (SK-MEL-28 melanoma cells; 48 h, MTT)","pIC50 (B16-F0 melanoma cells; 48 h, MTT)"
Cc1cccc(O)c1 [3-hydroxytoluene],2.60,2.68,–,–,–
2-hydroxyacetophenone,–,–,–,2.40,–
Cc1ccccc1O [2-hydroxytoluene],2.49,2.49,–,–,–
CC(=O)c1cccc(O)c1 [3-hydroxyacetophenone],–,–,–,2.70,2.85
OCc1ccccc1O [2-hydroxybenzyl alcohol],2.82,2.96,0%,–,–
O=C(O)c1ccccc1O [2-hydroxybenzoic acid],2.30,2.28,0%,–,–
"O=C(O)c1ccccc1 [Benzoic acid, benzoic acid, reference compound]",< 2.00,1.96,12±2%,–,–

# The next lines start with the values.
"pIC50 (SK-MEL-28 melanoma cells; Homo sapiens, SK-MEL-28, 48 h)","pIC50 (B16-F0 melanoma cells; Mus musculus, B16F0, 48 h)",% GSH depletion (2 h) Tyrosinase/O2 (Mushroom tyrosinase),"pIC50 (SK-MEL-28 melanoma cells; 48 h, MTT)","pIC50 (B16-F0 melanoma cells; 48 h, MTT)",Molecule
2.70,–,–,–,–,Cc1ccc(O)cc1 [4-hydroxytoluene]
2.10,2.52,–,–,–,CC(=O)c1ccc(O)cc1 [4-hydroxyacetophenone]
< 2.00,2.10,0%,–,–,"OCc1ccccc1 [Benzyl alcohol, benzyl alcohol, reference compound]"
2.68,2.72,–,–,–,"CCOC(=O)c1cccc(O)c1 [Ethyl 3-hydroxybenzoate, ethyl 3-hydroxybenzoate]"
2.70,2.59,22±2%,–,–,"CCOC(=O)c1ccccc1O [Ethyl 2-hydroxybenzoate, ethyl 2-hydroxybenzoate]"
2.64,2.74,–,–,–,O=C(O)c1cccc(O)c1 [3-hydroxybenzoic acid]
